Ki data for 19 molecules are collected here from patent publication US20250320204A1 (RIBOSCIENCE LLC, priority 2023, published 2025).

SMILES strings stand for the structures.

In experiment [1] the target is T1, ENPP1 (Homo sapiens, UniProt P22413).
T1 sequence (P22413 1-925): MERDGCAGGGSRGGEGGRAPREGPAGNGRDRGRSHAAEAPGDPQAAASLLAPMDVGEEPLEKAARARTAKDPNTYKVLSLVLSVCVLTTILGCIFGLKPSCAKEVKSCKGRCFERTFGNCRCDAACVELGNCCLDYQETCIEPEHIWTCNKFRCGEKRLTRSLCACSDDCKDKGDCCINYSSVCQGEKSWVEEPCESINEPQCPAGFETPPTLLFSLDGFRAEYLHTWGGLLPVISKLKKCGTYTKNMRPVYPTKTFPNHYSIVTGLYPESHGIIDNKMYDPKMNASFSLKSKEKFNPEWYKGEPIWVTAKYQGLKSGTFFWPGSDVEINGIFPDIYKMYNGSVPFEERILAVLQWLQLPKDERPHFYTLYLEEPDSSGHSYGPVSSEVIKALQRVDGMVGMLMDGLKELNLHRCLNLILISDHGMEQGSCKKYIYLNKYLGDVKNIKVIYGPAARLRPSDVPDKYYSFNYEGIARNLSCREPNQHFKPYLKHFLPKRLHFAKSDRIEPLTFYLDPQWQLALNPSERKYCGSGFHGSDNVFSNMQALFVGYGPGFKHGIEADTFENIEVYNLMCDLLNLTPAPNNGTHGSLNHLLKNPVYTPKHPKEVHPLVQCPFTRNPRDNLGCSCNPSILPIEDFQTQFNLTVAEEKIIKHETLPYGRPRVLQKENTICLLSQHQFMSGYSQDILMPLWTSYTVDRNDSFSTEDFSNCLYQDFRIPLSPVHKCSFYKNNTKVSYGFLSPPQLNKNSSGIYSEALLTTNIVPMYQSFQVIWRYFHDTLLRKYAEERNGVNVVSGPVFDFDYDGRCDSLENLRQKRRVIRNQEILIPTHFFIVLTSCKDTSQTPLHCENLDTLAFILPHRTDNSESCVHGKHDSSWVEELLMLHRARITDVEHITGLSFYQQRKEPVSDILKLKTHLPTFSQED
Briefly: Measurement of 2′3′-cGAMP hydrolysis by ENPP1 (AMP-Glo). The note with it: 2′3′-cGAMP substrate 100 μM, KM 32 μM; Ki from IC50 by Cheng-Prusoff. It counts as biochemical. The method, then: Measurement of 2′3′-cGAMP hydrolysis by ENPP1
The AMP-Glo assay kit from Promega (catalog number V5012) was used for measurement of 5′-AMP production.
First, an ENPP1 and test compound incubation was set up in assay buffer (50 mM Tris -HCl, pH8.8, 250 mM NaCl, 0.1 mg/ml BSA) with following conditions: ENPP1 concentration: 1.25 nM; test compound concentration ranging from 137 pM to 100 nM. The incubation was carried out at 25° C. for 10 min.
Second, after the 10-minute incubation of ENPP1 and test compound, prepare on a separate plate, 15 μl of the substrate 2′3′-cGAMP at 200 μM in assay buffer. Then, 15 μl of the ENPP1/Compound incubation was transferred to the 200 μM 2′3′-cGAMP solution to initiate the reaction. The 30 μl mixture was incubated for 30 min at 25° C. In all these assays a DMSO control without compound was included which gave the maximum 5′-AMP production (MAX RLU). After 30 min the reaction was stopped by heating at 90° C. for 3 min.
Third, the Promega AMP-Glo kit was used to detect 5′-AMP production as a measurement of ENPP1 enzyme activity. Briefly, 10 μl of the above mentioned 30 μl total reaction per sample was transferred into 384 well white solid assay plate for measurement of 5′-AMP production. For each well, 10 μl of AMP-Glo Reagent I was added, mixed well, and incubated for 1 hour at 25° C. At this time AMP detection solution was prepared and 20 μl was added per well, and the resulting solution was incubated for 1 hr at 25° C. Duplicates were run for each inhibitor concentration. Luminescence signal (relative luminescence units, RLU) was recorded using a PerkinElmer 2300 Enspire multimode plate reader.
The % inhibition was calculated using the following equation: % inhibition=(MAX RLU-sample RLU)/MAX RLU X 100%.
IC50 values of compounds were determined by loading compound concentration data and percent inhibition values into GraphPad Prism (GraphPad Prism version 7.0 for
Windows, GraphPad Software, La Jolla California USA, www.graphpad.com) and conducted a Sigmoidal variable slope nonlinear regression fitting.
Ki values for each compound were calculated from the observed IC50 from GraphPad analysis using the Cheng-Prusoff equation: Ki=IC50/(1+ (S)/KM). (S) here is 100μ M and KM is 32 μm.

In experiment [2] the target is T1, ENPP1. Briefly: Measurement of pNP-TMP hydrolysis by ENPP1. It counts as biochemical. The note with it: pNP-TMP substrate 500 μM, Km 232 μM; Ki from IC50 by Cheng-Prusoff. As for the experimental part: Measurement of pNP-TMP hydrolysis by ENPP1
p-Nitrophenyl thymidine 5′-monophosphate (pNP-TMP) is a synthesized substrate for ENPP1. The ENPP1 enzyme activity assay with pNP-TMP substrate was conducted as follows:
First, in a 60 μl reaction, 7.5 ng purified ENPP1 was mixed with 1.2 μl compounds of Formula (I) (test compound) ranging from 13.7 nM to 10 μM. Incubation of ENPP1 with compounds was set at 25° C. for 10 min. Reactions with DMSO only (with ENPP1 but no compound) gave the fastest reaction (MAX Activity). For each compound dilution, wells with assay buffer (50 mM Tris -HCl, pH8.8, 250 mM NaCl, 0.1 mg/ml BSA) and test compounds but no ENPP1 were included as controls for the subtraction of test compound derived absorbance at 405 nm.
Second, after 10 minutes incubation of ENPP1 and test compound, the assay was initiated by transferring 50 μl of the above mentioned ENPP1/test compound reaction into 50 μl of 1 mM pNP-TMP in assay buffer results in a 100 μl total reaction in non-binding surface clear bottom 96 well plates. Absorbance at 405 nm was recorded immediately in kinetic mode by PerkinElmer 2300 Enspire multimode plate reader.
For each inhibitor, the specific ENPP1 activity was calculated using the following equation: ENPP1 activity (pmol/min/μg)=Adjusted Vmax (OD405 nm/min) X conversion factor (pmol/OD405 nm)/amount of enzyme (μg)
Adjusted Vmax=V0X (Km+(S))/(S). In this assay, Km=232 μM, (S)=500 μM. Adjusted Vmax=1.464 X V0.
V0=(OD405 nm with ENPP1-OD405 nm ENPP1 blank)/minutes. OD405 nm was plotted, with blank subtracted, against time (minutes), the initial linear rate is V0.
The conversion factor (pmol/OD405 nm), was determined by plotting the amount of standard, 4-Nitrophenol (Sigma -Aldrich, Catalog #241326), against absorbance at 405 nm. The slope is the conversion factor. The percent ENPP1 activity for each sample was calculated using the following equation: […]
To determine the IC50 for each compound, compound concentration values and percent enzyme activity values were inserted into GraphPad Prism (GraphPad Prism version 9.0 for Windows, GraphPad Software, La Jolla California USA, www.graphpad.com), and Prism's Transform analysis was used to convert the x-axis values (compound concentration) to logarithms. A sigmoidal variable slope nonlinear regression analysis was performed using the following equation: Y=Bottom+ (Top-Bottom)/(1+10^((Log IC50″X) *HillSlope)).
Ki values for each compound were calculated from the observed IC50 from GraphPad analysis using the Cheng-Prusoff equation: Ki=IC50/(1+(S)/KM). (S) here is 500 μM and KM is determined to be 232 μM.

A word on the Ki: it is the equilibrium dissociation constant of an inhibitor or competing ligand from its target. Low readings indicate tighter binding, high ones weaker binding. Consider `N=S(=O)(c1cccc(COc2ccnc3c(OCF)nccc23)c1)C1CC1` (racemic) [Example 41, cyclopropyl(3-(((8-(fluoromethoxy)-1,7-naphthyridin-4-yl)oxy)methyl)phenyl)-(imino)-lambda6-sulfanone], for which the Ki was less than 1 nM at ENPP1 [1] and less than 10 nM on ENPP1 [2].

Consider `CS(=N)(=O)CC1(O)CCN(c2ccnc3c(OCF)nccc23)CC1` (racemic) [Example 47, ((1-(8-(fluoromethoxy)-1,7-naphthyridin-4-yl)-4-hydroxypiperidin-4-yl)methyl) (imino)(methyl)-lambda6-sulfanone], for which the inhibition constant (Ki) on ENPP1 [1] was less than 1 nM.

As for `COc1nccc2c(OCc3cc(F)cc(S(=N)(=O)C4CC4)c3)ccnc12` (racemic) [Example 66, cyclopropyl(3-fluoro-5-(((8-methoxy-1,7-naphthyridin-4-yl)oxy)methyl)-phenyl) (imino)-lambda6-sulfanone], the Ki at ENPP1 [1] is less than 1 nM.

As for `CS(=N)(=O)c1cccc(COc2ccnc3c(OCF)nccc23)c1` (racemic) [Example 77, (3-(((8-(fluoromethoxy)-1,7-naphthyridin-4-yl)oxy)methyl)phenyl) (imino)(methyl)-lambda6-sulfanone], the inhibition constant Ki was less than 1 nM on ENPP1 [1] and less than 10 nM at ENPP1 [2].

As for `COc1nccc2c(N3CC4(CC(CS(C)(=N)=O)C4)C3)ncnc12` (single isomer, unassigned) [Example 2a, imino ((2-(8-methoxypyrido[3,4-d]pyrimidin-4-yl)-2-azaspiro[3.3]heptan-6-yl)methyl)(methyl)-lambda6-sulfanone], the inhibition constant (Ki) is less than 1 nM on ENPP1 [1] and less than 10 nM at ENPP1 [2].

Consider `N=[S@@](=O)(c1cccc(COc2ccnc3c(OCF)nccc23)c1)C1CC1` (single isomer, unassigned) [Example 43], for which the inhibition constant Ki on ENPP1 [1] is less than 1 nM; at ENPP1 [2] it was less than 10 nM.

`C[S@](=N)(=O)CC1(O)CCN(c2ccnc3c(OCF)nccc23)CC1` (single isomer, unassigned) [Example 49]: the inhibition constant Ki at ENPP1 [1] is less than 1 nM; on ENPP1 [2], less than 10 nM.

In the case of `COc1nccc2c(OCc3cc(F)cc([S@@](=N)(=O)C4CC4)c3)ccnc12` (single isomer, unassigned) [Example 67], the results for the Ki at ENPP1 [1] and at ENPP1 [2] were less than 1 nM and less than 10 nM, respectively.

Turning to `COc1nccc2c(OCc3cc(F)cc([S@@](C)(=N)=O)c3)ccnc12` (single isomer, unassigned) [Example 71], the inhibition constant Ki on ENPP1 [1] is less than 1 nM; on ENPP1 [2] it was less than 10 nM.

`C[S@](=N)(=O)c1cccc(COc2ccnc3c(OCF)nccc23)c1` (single isomer, unassigned) [Example 79]: the Ki was less than 1 nM at ENPP1 [1] and less than 10 nM at ENPP1 [2].

For `CS(=N)(=O)c1cccc(COc2ccnc3cnccc23)c1` (centres unmarked) [Example 9], the Ki on ENPP1 [1] is 1 to 5 nM; at ENPP1 [2] it was less than 10 nM.

With `COc1nccc2c(OCc3cccc([S@@](=N)(=O)C4CC4)c3)ccnc12` [Example 17b, (S)-Cyclopropyl(imino)(3-(((8-methoxy-1,7-naphthyridin-4-yl)oxy)methyl)phenyl)-lamba6-sulfanone], the figures for the Ki at ENPP1 [1] and at ENPP1 [2] were less than 1 nM and less than 10 nM, respectively.

Molecule `COc1nccc2c(N3CCC(O)(CS(C)(=N)=O)CC3)ccnc12` (centres unmarked) [Example 25] had an inhibition constant Ki at ENPP1 [1] of less than 1 nM.

At ENPP1 [2], `CS(=N)(=O)CCC1CCN(c2ccnc3c(OCF)nccc23)CC1` (centres unmarked) [Example 65, (2-(1-(8-(fluoromethoxy)-1,7-naphthyridin-4-yl)piperidin-4-yl)ethyl)-(imino)(methyl)-lambda6-sulfanone] displayed a Ki of less than 10 nM.

In turn, `CS(=N)(=O)c1cc(F)cc(COc2ccnc3c(OCF)nccc23)c1` (centres unmarked) [Example 72, (3-fluoro-5-(((8-(fluoromethoxy)-1,7-naphthyridin-4-yl)oxy)methyl)phenyl)-(imino)(methyl)-lambda6-sulfanone] gave an inhibitory constant (Ki) on ENPP1 [1] of less than 1 nM.

`COc1nccc2c(OCc3cccc([S@@](=N)(=O)C(C)(C)C)c3)ccnc12` [Example 74, (S)-tert-butyl(imino) (3-(((8-methoxy-1,7-naphthyridin-4-yl)oxy)methyl)phenyl)-lambda6-sulfanone] yielded a Ki on ENPP1 [2] of less than 10 nM.

In turn, `COc1nccc2c(OCc3cccc([S@@](C)(=N)=O)c3)ccnc12` [Example 75, (S)-imino (3-(((8-methoxy-1,7-naphthyridin-4-yl)oxy)methyl)phenyl)(methyl)-lambda6-sulfanone] returned a Ki at ENPP1 [2] of less than 10 nM.

At ENPP1 [2], `COc1nccc2c(OCc3cccc([S@](=N)(=O)C(C)(C)C)c3)ccnc12` [Example 76, (R)-tert-butyl(imino) (3-(((8-methoxy-1,7-naphthyridin-4-yl)oxy)methyl)phenyl)-lambda6-sulfanone] yielded a Ki of 10 to 100 nM.

On to `COc1nccc2c(OCc3cccc([S@@](=N)(=O)C(C)C)c3)ccnc12` [Example 84, (S)-imino(isopropyl)(3-(((8-methoxy-1,7-naphthyridin-4-yl)oxy)methyl)phenyl)-lambda6-sulfanone], for which the Ki on ENPP1 [2] is less than 10 nM.
